Patent US20010025038A1, “Method of reducing craving in mammals” (priority 1997, published 2001)

What was measured:
[1] = in vivo; cited from earlier work
male CF-1 mice = test: cocaine induced locomotor stimulation in mice (Example 1); type: in vivo; conditions: for cocaine induced increase in locomotor activity: oral dose 20 minutes before cocaine sc; for locomotor activity, drug administered alone: oral dose, 8 minute period
Method: Cocaine-produced increases in locomotor activity were blocked by D1/D5 antagonists, but not by D2/D3 antagonists unless relatively high doses were used. In this example, a selective D1/D5 antagonist, SCH 39166, and a selective D2/D3 antagonist, raclopride, were studied on cocaine induced locomotor stimulation in male CF-1 mice. The mice were given an oral dose of SCH 39166, raclopride or vehicle, followed 20 minutes later by a dose of cocaine or vehicle administered subcutaneously (sc).

[2] = in vivo; cited from earlier work; remark: listed apart in the source
[3] = system: adult male rats (strain: CD); test: bar press for food on fixed-ratio schedule FR30 (Example 3); type: in vivo
Method: In this example, adult male rats (strain: CD) were trained to bar press for food on a fixed-ratio schedule of 30 (FR30). A rat had to press a bar 30 times in order to receive one 45 mg pellet of food. Each training session was 30 minutes long. The total response rate (total # of bar presses/30 minutes), i.e., the rate at which rats pressed the bar, was measured and then analyzed in animals that were initially given saline (control animals) and then doses of the D1/D5 antagonists SCH23390 or SCH39166. Each group of six animals received one dose of drug given subcutaneously in a volume of 1 ml/kg 30 minutes before the start of the session.

[4] = system: people who previously had exhibited a cocaine addiction; type: in vivo, humans
Method: In a double-blind study, the subjects were administered placebo 10 mg of SCH39166, 25 mg of SCH 39166, or 100 mg of SCH 39166 two hours prior to an injection of […] of cocaine. Systolic and diastolic blood pressure in the individuals was measured from 2 hours prior to cocaine injection until approximately 4 hours after cocaine administration.
In the same study, the desire to take cocaine was measured as a function of time after administration of placebo or varying doses of SCH 39166. The desire to take cocaine was measured by the Visual Analog Scale test. This test procedure is described in the British Journal of Medical Psychology, Volume 47. pp 211-218 (1974). In this test the individuals are asked to subjectively rate their feelings to take cocaine on a scale of zero-100, with zero representing no desire at all and 100 representing the strongest feelings. As may be seen in FIG. 7, the euphoric “high” following cocaine administration was lower in patients who had been pre-treated with SCH 39166, particularly a dose of 100 mg.
Even if the compounds of this invention were effective in reducing craving to abused substances or food, individuals would be unlikely to take the craving-reducing drugs unless they had tolerable side effects. […] Therefore, usage of this compound should not be adversely affected by negative opinions of the individuals to whom the drug is administered nor should it cause stimulation following administration.

[5] = system: cocaine-dependent patients; test: multi-center double blind study in cocaine-dependent patients, interim analysis (Example 6); type: in vivo; conditions: for Patients with Weight Loss ≧5 lb. / Weight Change: patients completing ≧28 days of treatment
Method: In a multi-center double blind study an interim analysis had been conducted on approximately 160 cocaine-dependent patients who had been given daily doses of 10 mg, 25 or 100 mg of SCH39166 or of a placebo over a test period of eight weeks.
The Body Mass Index (BMI) and the patient weight were measured at the beginning and end of the study. The BMI is determined by the weight (kg)/height^2 (meters). Patients having BMI's of 20.0-24.9 are considered to be of normal weight, while patients having BMI's over 25.0 are considered to be overweight.
Table 1B indicates the percentage of patients with an initial BMI of 22 or less and the percentage of patients with a BMI of at least 26 who lost at least one unit of BMI.

[6] = up to 3 mg/k; cited from earlier work
[7] = system: cocaine-dependent patients; test: multi-center double blind study in cocaine-dependent patients, interim analysis (Example 6); type: in vivo
healthy volunteers = test: crossover d-amphetamine study in healthy volunteers; type: in vivo; conditions: 100 mg pretreatment, 15 mg d-amphetamine, vs placebo
Method: Similarly, in a second crossover study in healthy volunteers administered 15 mg d-amphetamine following pretreatment with 100 mg SCH 39166 or placebo, attenuation of amphetamine euphoric (FIG. 12) and dysphoric (FIG. 13) effects were also observed for SCH 39166 in comparison with the placebo.

ob/ob mice = test: food intake in genetically obese ob/ob mice (Example 4); type: in vivo; conditions: 3.0 mg/kg ip, p<0.02
Method: Twenty four male mice of a genetically obese strain, i.e. ob/ob mice, aged 16 weeks were individually housed in Nalgene metabolism cages in a reverse light cycle room for the entire duration of the study. Mice were allowed food and water ad libitum. The mice were divided into 5 groups of 4-5 mice each based on baseline food intake and body weight. Mice were dosed intraperitoneally (ip) with vehicle, 0.003, 0.03, 0.3, or 3.0 mg/kg SCH 39166 at the onset of the dark cycle and a known mass of standard rodent chow was provided. Food consumption was measured after five hours, and another ip injection of vehicle or drug was given. Food intake was measured again at 24 hours after the initial injection. These injections and measurements were continued for 72 hours. Seventy two hour cumulative food intake was decreased 17% at 3.0 mg/kg (p<0.02).

[8] = system: adult male Sprague-Dawley (SD) rats; test: NPY-stimulated food intake in rats (Example 5); type: in vivo; conditions: 3 mpk ip 30 minutes before i.c.v. NPY
Method: In this experiment, a baseline food intake (in grams) was measured at time intervals of 2, 4, or 24 hours following interocerebral ventricular (i.c.v.) administration of neuropeptide “Y” (NPY), a compound that stimulates an animal to consume food. A 3 μg/5 μl volume of NPY was administered to adult male Sprague-Dawley (SD) rats. On test day, three groups of rats (five rats per group) were pretreated with SCH39166 according to the following dosing schedule:
A dose of SCH39166 was injected intraperitoneally (ip). Thirty minutes later, a […] i.c.v. injection of NPY was administered. The control animals received an ip injection of the vehicle methylcellulose. Thirty minutes later, animals received NPY ([…]). A second group received 1 mpk of SCH39166 ip, and thirty minutes later received […] of NPY. A third group of animals received 3 mpk of SCH39166 ip and thirty minutes later received […] of NPY. Food intake was measured 2 hours, 4 hours, and 24 hours following NPY administration.

[9] = cocaine relapse model; cited from earlier work
monkeys = monkeys administered SCH 39166; cited from earlier work
primate = primate model of food craving and relapse after food restriction; type: in vivo
From the text: (§1) While not wishing to be bound by any theory, D1/D5 antagonists and/or D1/D5 partial agonists may prevent dietary relapse in the treatment of obesity by blocking the rewarding effects of dopamine at the D1/D5 sites associated with cravings.

rodent = rodent model of food craving and relapse after food restriction; type: in vivo
From the text: as §1

[10] = daily doses of 10, 25 or 100 mg over eight weeks

CCN1CCC[C@H]1CNC(=O)c1c(O)c(Cl)cc(Cl)c1OC [raclopride, reference compound]
block of the response-reinstating effects of food reinforcement [1]: sufficient to block the response-reinstating effects of food reinforcement | cocaine induced increase in locomotor activity (male CF-1 mice): only affected the cocaine induced increase in locomotor activity at relatively high doses | locomotor activity, drug administered alone (male CF-1 mice): dose dependent decrease in locomotor activity

O=C(CCCN1CCC(O)(c2ccc(Cl)cc2)CC1)c1ccc(F)cc1 [haloperidol]
adverse side effects [2]: significant adverse side effects, such as dysphoria, restlessness or stiffness

CN1CCc2cc(Cl)c(O)cc2[C@H]2c3ccccc3CC[C@@H]21 [SCH 39166, (−)- trans-6,7,7a,8,9,13b-hexahydro-3-chloro-2-hydroxy-N-methyl-5H-benzo [d]-naphtho-[2,1-b]azepine]
bar press rate relative to saline-treated control animals ([3]; 0.01 mpk subcutaneously 30 minutes before session, FR30): significantly reduced the bar press rate | response rate across doses ([3]; SCH 23390 0.003-0.03 mpk, SCH 39166 0.001-0.3 mpk, subcutaneously): dose-related decrease in response rate until responses were eliminated at the highest dose | reduction in cocaine desire ([4]; Visual Analog Scale, 100 mg): greatest reduction in cocaine desire | desire to take cocaine ([4]; Visual Analog Scale, compared with placebo): significantly lower | dysphoric effects, such as anxiety, after cocaine administration ([4]; Visual Analog Scale, pre-treated patients): lower | euphoric "high" following cocaine administration ([4]; Visual Analog Scale, pre-treated patients, particularly a dose of 100 mg): lower | "bad drug effects" ([4]; in vivo): not significantly different from the placebo | systolic and diastolic blood pressure elevations caused by cocaine ([4]; in vivo, 30 mg/kg): did not adversely affect | Patients with Weight Loss ≧1 BMI UNIT, Init. BMI ≦22 ([5]; 10 mg daily): 2/9 (22%) | Patients with Weight Loss ≧1 BMI UNIT, Init. BMI ≧26 ([5]; 10 mg daily): 2/10 (20%) | Patients with Weight Loss ≧5 lb. ([5]; 10 mg daily): 27% | Weight Change ([5]; 10 mg daily): −1.4 pounds | % of Patients Abstaining from Alcohol for at Least 1 day ([5]; 10 mg dose): 43% | % of Patients Abstaining from Alcohol for at Least 3 days ([5]; 10 mg dose): 23% | % of Patients At Least 3 Days Since Last Cigarette ([5]; 10 mg dose): 27% | Patients with Weight Loss ≧1 BMI UNIT, Init. BMI ≦22 ([5]; 25 mg daily): 2/10 (20%) | Patients with Weight Loss ≧1 BMI UNIT, Init. BMI ≧26 ([5]; 25 mg daily): 4/13 (30%) | Patients with Weight Loss ≧5 lb. ([5]; 25 mg daily): 22% | Weight Change ([5]; 25 mg daily): −0.9 pounds | % of Patients Abstaining from Alcohol for at Least 3 days ([5]; 25 mg dose): 31% | % of Patients At Least 3 Days Since Last Cigarette ([5]; 25 mg dose): 19% | % of Patients At Least One Day Since Last Cigarette ([5]; 25 mg dose): 53% | Patients with Weight Loss ≧1 BMI UNIT, Init. BMI ≦22 ([5]; 100 mg daily): 1/6 (17%) | Patients with Weight Loss ≧1 BMI UNIT, Init. BMI ≧26 ([5]; 100 mg daily): 10/14 (71%) | Patients with Weight Loss ≧5 lb. ([5]; 100 mg daily): 45% | Weight Change ([5]; 100 mg daily): −3.3 pounds | % of Patients Abstaining from Alcohol for at Least 1 day ([5]; 100 mg dose): 59% | % of Patients Abstaining from Alcohol for at Least 3 days ([5]; 100 mg dose): 48% | % of Patients At Least 3 Days Since Last Cigarette ([5]; 100 mg dose): 17% | % of Patients At Least One Day Since Last Cigarette ([5]; 100 mg dose): 38% | reducing weight in the obese population ([5]; BMI of 26 or greater, particularly at 100 mg/day): especially effective in reducing weight | reducing alcohol consumption [5, 10]: effective | reducing cigarette smoking [5, 10]: effective | reducing cocaine usage [5, 10]: did not show efficacy | reducing weight [5, 10]: effective | reducing cigarette smoking ([5]; low doses): efficacious in reducing cigarette smoking | effect on total food intake, meal size or feeding rate [6]: no effect | % of Patients At Least One Day Since Last Cigarette ([7]; 10 mg dose): 57% | % of Patients Abstaining from Alcohol for at Least 1 day ([7]; 25 mg dose): 41% | amphetamine dysphoric effects (healthy volunteers): attenuation | amphetamine euphoric effects (healthy volunteers): attenuation | seventy two hour cumulative food intake decrease (ob/ob mice): 17% | food intake 2 hours after NPY administration [8]: significant decrease in food intake | attenuation of cocaine-seeking behavior [9]: able to attenuate the cocaine-seeking behavior | cocaine induced increase in locomotor activity (male CF-1 mice): blocked the cocaine induced increase in locomotor activity at all doses of cocaine tested | locomotor activity, drug administered alone (male CF-1 mice): dose dependent decrease in locomotor activity | increase in the dose of cocaine required to restore characteristic self-administration performances (monkeys): ≥ 3 fold | relapse associated with the effects of food and environmental cues associated with food (primate): can block the relapse | relapse associated with the effects of food and environmental cues associated with food (rodent): can block the relapse
